Consider 13 molecules from article PMC11767801, “Purine but Not Pyrimidine De Novo Nucleotide Biosynthesis Inhibitors Strongly Enhance the Antiviral Effect of Corresponding Nucleobases Against Dengue Virus” (Molecules, 2025).

The test system of one data set is DENV replicon. Put plainly: DENV replicon cell assay (Renilla luciferase). The class given is cell-based, Dengue virus (DENV). As to conditions: for EC50: Dengue virus; for potentiation of anti-replicon activity (in words): purine nucleobase combined with 6MMPR and/or 6MMPR prodrugs. On the procedure:
(§1) The following cell lines were used in this study: (i) Huh7 was purchased from JCRB Cell Bank (Seikisui XenoTech, Kansas City, MO, USA) and cultured in Minimum Essential Medium (MEM) supplemented with 10% fetal bovine serum (FBS), and 1× non-essential amino acids (NEAA), 1 mM sodium pyruvate, 100 IU penicillin/streptomycin per mL, 5 µg/mL plasmocin (InvivoGen, San Diego, CA, USA), 1× GlutaMAX, and (ii) BHK pD2-hRucPac-2ATG30 DENV replicon cells were a gift from M. Diamond (Washington University School of Medicine) and cultured in Dulbecco’s modified Eagle’s medium (DMEM) supplemented with 10% FBS, 100 IU penicillin/streptomycin per mL, 5 µg/mL plasmocin, 1× GlutaMAX, and 3 µg/mL puromycin (InvivoGen). (iii) A549 Ace2 TMPRSS2 cells were provided by M. Saeed (Boston University) and grown in DMEM supplemented with 10% FBS, 100 IU penicillin/streptomycin per mL, 10 mM HEPES, 1× NEAA, 1× GlutaMAX, 1 mM sodium pyruvate, 5 µg/mL plasmocin, 0.5 µg/mL puromycin, and 0.5 µg/mL blasticidin (InvivoGen).
The DENV replicon assay was performed as described. Briefly, DENV replicon cells were plated at 1500–2000 cells per well […] of a 96-well dish (Corning, USA) plate the day before use. The next day, compounds were added and cells incubated at 37 °C, 5% CO2, in a humidified incubator for three days. The cells were the washed with PBS and Complete Promega Renilla reagent was added (Promega E2720, Madison, USA, 1 µL Renilla-Glo Substrate + 99 µL Renilla-Glo Buffer + 100 µL phenol-red-free DMEM supplemented with 10% FBS per well). Cells were lysed for 10 min at room temp and 160 µL of lysate per well was transferred to wells of a 96-well opaque white plate (Falcon 353296, Corning, USA), and luminescence was measured using a BioTek (Winooski, USA) Neo2 plate reader.
On the technique in general: Replicon systems follow genome replication, usually without infectious particles.

The subject of data set [1] is DENV type 2 New Guinea C strain. Put plainly: DENV CPE assay in Huh7 cells (neutral red). Particulars: five days. The class given is cell-based, Dengue virus (DENV). On the procedure: (§2) Figure 5 Flavivirus inhibition by the nucleobase 2-thiouracil (2SU) and the corresponding nucleoside 2-thiouridine (2SUridine). (A) Dose–response assay for inhibition of a ZIKV nanoluc reporter. Cells were inoculated with reporter virus for two hours, washed, and then compound-added. Three days later, cells were lysed, and the luciferase activity was analyzed. (B) DENV-induced cytopathic effects in compound-treated cells. Cells were inoculated with DENV for two hours, washed, and compound-added for five days. A neutral red assay was performed to determine cell viability. (C) Same as in (B), except the cells are not treated with virus. NITD = NITD008 a positive-control DENV inhibitor.
The following viruses were used in this study: (i) ZIKV PAN1 Nluc reporter virus has a nanoluc gene inserted into the viral genome as described. The virus was propagated and virus preps tittered as described. […]
Huh7 cells were plated into 96-well plates at 10,000 cells per well the day before use. […] The compounds were removed, and the viability of the cells was measured using a neutral red staining assay. […] Neutral red destain buffer (50% ethanol, 49% H2O, and 1% glacial acetic acid) was added at 100 µL per well and the plates were read at 540 nm in a Molecular Device (San Jose, CA, USA) M5e plate reader.

In data set [2] the test system is ZIKV PAN1 Nluc reporter virus. Put plainly: ZIKV nanoluc reporter virus assay in A549 Ace2 TMPRSS2 cells. The class given is cell-based, Zika virus (ZIKV). Particulars: three days. On the procedure: as §2
The following viruses were used in this study: (i) ZIKV PAN1 Nluc reporter virus has a nanoluc gene inserted into the viral genome as described. The virus was propagated and virus preps tittered as described. (ii) DENV type 2 New Guinea C strain (VR-1584) was obtained from ATCC (Manassas, VA, USA) and propagated in C6/36 mosquito cells as described.
The ZIKV nanoluc reporter virus assay was performed as described. Briefly, A549 Ace2 TMPRSS2 cells were plated into 96-well plates at 15,000 per well the night before use. […] The luciferase levels were measured using a Neo 2 plate reader (BioTek, Winooski, USA).

Data set [3] can be described thus: Cell viability assay (MTS). The class given is cell-based. As to conditions: hamster. On the procedure: as §1
(§3) Cell viability assays were performed as described in [9, 10, 23]. Briefly, DENV replicon cells were plated at 1500–2000 cells per well of a 96-well dish plate (Corning, NY, USA) the day before use. The next day, compounds were added and cells incubated at 37 °C, 5% CO2, in a humidified incubator for three days. The cells were washed with phosphate-buffered saline (PBS) and incubated with the MTS reagent (Promega G5430, Madison, WI, USA) as per the manufacturer’s instructions. The plates were read at a 490 nm wavelength at 30 min intervals in a BioTek (Winooski, VT, USA) Neo2 plate reader.

A further data set concerns DENV. Further details: method as in PMID 29672522. Particulars: cited from earlier work.
The subject of data set [4] is DENV replicon cells (BHK pD2-hRucPac-2ATG30). Put plainly: Cell viability assay (MTS). The format is cell-based. As to conditions: nucleobase combined with potentiators (6MMPR and prodrugs). On the procedure: as §1, §3
Where [5] appears, read: 72 h, compound alone, DENV BHK replicon cells, luciferase, three days.
Setting [6] is: compound alone, DENV replicon cells, MTS, three days.
Where [7] appears, read: 72 h, Table 3, nucleobase dose-response plus vehicle (DMSO).
Where [8] appears, read: nucleobase dose-response +6MMPR 0.065 μM.
Where [9] appears, read: nucleobase dose-response +Prdg 1 0.09 μM.
Where [10] appears, read: nucleobase dose-response +Prdg 2 1.5 μM.
The mark [11] stands for this setting: nucleobase dose-response +Prdg 3 1.4 μM.
[12] abbreviates: Table 3, nucleobase dose-response plus vehicle (DMSO).

Structures are written as SMILES. Entries after “also recorded” stand apart in the source; their conditions may differ. Where two headings read alike, the source gives them in different places.

In the case of `O=c1ccn([C@@H]2O[C@H](CO)[C@@H](O)[C@H]2O)c(=S)[nH]1` [2-thiouridine], the half-maximal effective concentration (EC50) (commonly the concentration giving half of the maximal effect) in the data set with DENV replicon (setting [5]) was greater than 50 µM. The “anti-replicon activity (in words)” value with DENV replicon (compound alone, DENV BHK replicon cell line) was “we did not observe activity”. Also, the “antiviral activity, DENV-induced cytopathic effects (in words)” value in data set [1] is “observe antiviral activity”. Further, in data set [2], the “antiviral activity, ZIKV reporter virus replication (in words)” value was “observe antiviral activity”. Also, in data set [3] (setting [6]), the CC50 (as a rule, the concentration at which the toxic effect on the cells reaches its halfway point) at 3 days was greater than 50 µM.
Take `O=c1[nH]cc(F)c(=O)[nH]1` [5-fluorouracil]: the EC50 with DENV replicon (setting [5]) came out at 0.74 µM. The same molecule had a CC50 at 3 days in data set [3] (setting [6]) of 0.93 µM.
The matching figures for `Cc1c(-c2ccc(-c3ccccc3F)cc2)nc2ccc(F)cc2c1C(=O)O` [Brequinar]: 3 µM and 4.5 µM.
Take `NC(=O)c1nc(F)c[nH]c1=O` [Favipiravir]: the EC50 amounted to 128 µM with DENV replicon (setting [7]); 114 µM in the data set with DENV replicon (setting [5]); 63 µM with DENV replicon (setting [8]); 51 µM in the data set with DENV replicon (setting [9]); 47 µM with DENV replicon (setting [10]); 46 µM in the data set with DENV replicon (setting [11]). Also, in the data set with DENV replicon (listed as FAV), the “potentiation of anti-replicon activity (in words)” value (shortened to “potentiation”) is given as “clear enhanced effect; also recorded: reduction in the EC50 value”. The CC50 at 3 days in data set [3] (setting [12]), in data set [3] (setting [6]), in data set [3] (setting [8]), in data set [3] (setting [9]), in data set [3] (setting [10]) and in data set [3] (setting [11]) was greater than 500 µM each time.
Turning to `CC(C)C(=O)OC[C@H]1O[C@@H](n2ccc(NO)nc2=O)[C@H](O)[C@@H]1O` [Molnupiravir], the 50% effective concentration (EC50) in the data set with DENV replicon (setting [5]) was determined as 6.2 µM. The same molecule gave a CC50 at 3 days in data set [3] (setting [6]) of 53 µM.
The matching figures for `CSc1ncnc2c1ncn2[C@@H]1O[C@H](COC(=O)C(C)C)[C@@H](OC(=O)C(C)C)[C@H]1OC(=O)C(C)C` [Prdg 1]: 0.26 µM and 2.6 µM.
The matching figures for `O=c1cc[nH]c(=S)[nH]1` [Prdg 2-thiouracil, 2-thiouracil]: greater than 50 µM and greater than 50 µM.
`CSc1ncnc2c1ncn2[C@@H]1O[C@H](COC(=O)N(C)C)[C@@H](O)[C@H]1O` [Prdg 2] returned a half-maximal effective concentration (EC50) with DENV replicon (setting [5]) of 2.5 µM. This molecule also yielded a CC50 at 3 days in data set [3] (setting [6]) of 5.4 µM.
On to `CSc1ncnc2c1ncn2[C@@H]1O[C@H](COC(=O)N(C)C)[C@@H](OC(=O)C(C)C)[C@H]1OC(=O)C(C)C` [Prdg 3], for which the EC50 with DENV replicon (setting [5]) worked out at 2.3 µM. The same molecule had a CC50 at 3 days in data set [3] (setting [6]) of 2.4 µM.
`O=c1cnn([C@@H]2O[C@H](CO)[C@@H](O)[C@H]2O)c(=O)[nH]1` [Prdg 6-azauridine, 6-azauridine] came in with an EC50 with DENV replicon (setting [5]) of 1.9 µM. The cytotoxic concentration (CC50) at 3 days in data set [3] (setting [6]) amounted to 8.8 µM.
The matching figures for `CSc1ncnc2c1ncn2[C@@H]1O[C@H](CO)[C@@H](O)[C@H]1O` [Prdg 6MMPR, 6-methylmercaptopurine riboside]: 0.21 µM and 0.21 µM.
On to `NC(=O)c1ncc[nH]c1=O` [Prdg T-1105], for which the EC50 with DENV replicon (setting [7]) amounted to 15 µM; in the data set with DENV replicon (setting [5]) it was 13 µM; with DENV replicon (setting [8]), 11 µM; with DENV replicon (setting [9]), 8.3 µM; in the data set with DENV replicon (setting [10]), 10 µM; with DENV replicon (setting [11]), 9.6 µM. The “potentiation” value in the data set on DENV replicon is “strongly potentiated”. Further, the half-maximal cytotoxic concentration (CC50) at 3 days in data set [3] (setting [12]) is greater than 167 µM; in data set [3] (setting [6]) it was greater than 500 µM; in data set [3] (setting [8]) it was greater than 167 µM; in data set [3] (setting [9]), greater than 167 µM; in data set [3] (setting [10]), greater than 167 µM; in data set [3] (setting [11]) it was greater than 167 µM.
Turning to `NC(=O)c1nc[nH]n1` [Ribavirin nucleobase], the half-maximal effective concentration (EC50) in the data set with DENV replicon (setting [7]) stood at 5.7 µM; in the data set on DENV replicon (setting [5]) it was 5.7 µM; in the data set with DENV replicon (setting [8]) it was 3.4 µM; in the data set with DENV replicon (setting [9]), 2.3 µM; in the data set with DENV replicon (setting [10]), 0.88 µM; with DENV replicon (setting [11]), 2.6 µM. Moreover, the “potentiation” value in the data set on DENV replicon was “can be potentiated”. Moreover, the results for the “anti-DENV activity (in words)” value with DENV and in the data set on DENV (listed as ribavirin nucleobase) were “similarly strong antiviral activity” and “strong”, respectively. In addition, the entries for the “cytotoxicity (in words)” value with DENV and in the data set with DENV (listed as ribavirin nucleobase) were “considerably less cytotoxic than ribavirin” and “non-cytotoxic”, respectively. Further, in data set [4], the “toxicity of combination (in words)” value was “conferred some toxicity not shown by either compound alone”. The CC50 at 3 days was greater than 50 µM in data set [3] (setting [12]); greater than 100 µM in data set [3] (setting [6]); greater than 50 µM in data set [3] (setting [8]); greater than 50 µM in data set [3] (setting [9]); greater than 50 µM in data set [3] (setting [10]); greater than 50 µM in data set [3] (setting [11]).
